In patent publication US11639353B2, “Cyclobutanes- and azetidine-containing mono and spirocyclic compounds as αV integrin inhibitors” (BRISTOL-MYERS SQUIBB COMPANY, priority 2016, dated 2023):

Legend:
Conditions in all cases: alternatively SPA-based assay
[1] = target: human αVβ5 (Homo sapiens, UniProt P06756+P18084); experiment: human αVβ5 HTRF binding assay
Procedure: (§1) All binding assays used the HTRF (homogeneous time resolved fluorescence) technology from Cisbio International, therefore all assays are described as HTRF binding assays. The assay results for the Examples are listed above together with the characterization data. The HTRF binding assays are established for the following integrins: human αVβ6, human αVβ1, human αVβ3, human αVβ5, and human αVβ8. All assays used the following assay buffer: 20 mM Tris, pH 7.4, 1 mM MgCl2, 1 mM MnCl2, 0.01% Tween 20, and 0.01% BSA. Alternatively, a SPA-based assay was used for evaluation of receptor binding.
(§2) The SPA-based assay was carried out according to the protocol and procedures similar to the ones described in the following reference with appropriate modifications to agents and ligands which are readily understood by one skilled in the art: Pachter J A, Zhang R, Mayer-Ezell R., “Scintillation proximity assay to measure binding of soluble fibronectin to antibody-captured αVβ1 integrin” Anal Biochem. 1995 Sep. 1; 230(1):101-7.

[2] = target: human αVβ8 (Homo sapiens, UniProt P06756+P26012); experiment: human αVβ8 HTRF binding assay
Procedure: as §1, §2

[3] = target: human αVβ1 (Homo sapiens, UniProt P05556+P06756); experiment: human αVβ1 HTRF binding assay
Procedure: as §1, §2

[4] = target: human αVβ3 (Homo sapiens, UniProt P05106+P06756); experiment: human αVβ3 HTRF binding assay
Procedure: as §1, §2

[5] = target: T1, human αVβ6 (Homo sapiens, UniProt P06756+P18564); experiment: human αVβ6 HTRF binding assay
T1 construct: purchased R & D systems 3817-AV
Outline: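 Biotinylated recombinant human αVβ6 (1.25 nM final) incubated with FITC-fibronectin (5 nM final) 1 h at RT, then streptavidin-terbium (0.625 nM final) added and left overnight at RT in the dark before HTRF reading. Buffer: 20 mM Tris pH 7.4, 1 mM MgCl2, 1 mM MnCl2, 0.01% Tween 20, 0.01% BSA.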

human αVβ3, sequence (P06756 31-992 limits assumed): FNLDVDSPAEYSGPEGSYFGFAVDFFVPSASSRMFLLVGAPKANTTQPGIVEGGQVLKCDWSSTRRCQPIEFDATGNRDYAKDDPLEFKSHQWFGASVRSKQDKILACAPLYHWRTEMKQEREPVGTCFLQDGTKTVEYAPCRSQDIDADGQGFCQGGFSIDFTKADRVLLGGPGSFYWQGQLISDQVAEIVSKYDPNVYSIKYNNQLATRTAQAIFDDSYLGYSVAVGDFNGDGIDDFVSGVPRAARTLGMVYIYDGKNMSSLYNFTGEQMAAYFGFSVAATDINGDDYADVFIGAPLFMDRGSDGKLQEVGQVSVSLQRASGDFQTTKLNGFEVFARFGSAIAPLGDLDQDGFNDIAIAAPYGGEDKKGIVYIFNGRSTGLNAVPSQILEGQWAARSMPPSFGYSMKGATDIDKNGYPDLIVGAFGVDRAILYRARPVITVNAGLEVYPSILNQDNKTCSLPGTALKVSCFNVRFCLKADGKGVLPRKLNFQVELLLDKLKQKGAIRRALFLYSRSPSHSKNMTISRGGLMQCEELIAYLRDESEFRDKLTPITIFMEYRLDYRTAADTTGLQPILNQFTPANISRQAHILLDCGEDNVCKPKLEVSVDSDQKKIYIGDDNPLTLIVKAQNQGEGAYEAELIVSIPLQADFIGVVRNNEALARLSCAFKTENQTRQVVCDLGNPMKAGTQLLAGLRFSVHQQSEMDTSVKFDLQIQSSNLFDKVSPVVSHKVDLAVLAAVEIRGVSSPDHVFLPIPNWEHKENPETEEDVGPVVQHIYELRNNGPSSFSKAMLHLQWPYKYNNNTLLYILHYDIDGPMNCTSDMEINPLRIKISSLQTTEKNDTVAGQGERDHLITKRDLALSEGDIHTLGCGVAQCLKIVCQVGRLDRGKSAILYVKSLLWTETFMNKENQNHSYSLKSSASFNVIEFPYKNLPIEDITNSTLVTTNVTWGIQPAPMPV
human αVβ3, sequence (P05106 27-718 limits assumed): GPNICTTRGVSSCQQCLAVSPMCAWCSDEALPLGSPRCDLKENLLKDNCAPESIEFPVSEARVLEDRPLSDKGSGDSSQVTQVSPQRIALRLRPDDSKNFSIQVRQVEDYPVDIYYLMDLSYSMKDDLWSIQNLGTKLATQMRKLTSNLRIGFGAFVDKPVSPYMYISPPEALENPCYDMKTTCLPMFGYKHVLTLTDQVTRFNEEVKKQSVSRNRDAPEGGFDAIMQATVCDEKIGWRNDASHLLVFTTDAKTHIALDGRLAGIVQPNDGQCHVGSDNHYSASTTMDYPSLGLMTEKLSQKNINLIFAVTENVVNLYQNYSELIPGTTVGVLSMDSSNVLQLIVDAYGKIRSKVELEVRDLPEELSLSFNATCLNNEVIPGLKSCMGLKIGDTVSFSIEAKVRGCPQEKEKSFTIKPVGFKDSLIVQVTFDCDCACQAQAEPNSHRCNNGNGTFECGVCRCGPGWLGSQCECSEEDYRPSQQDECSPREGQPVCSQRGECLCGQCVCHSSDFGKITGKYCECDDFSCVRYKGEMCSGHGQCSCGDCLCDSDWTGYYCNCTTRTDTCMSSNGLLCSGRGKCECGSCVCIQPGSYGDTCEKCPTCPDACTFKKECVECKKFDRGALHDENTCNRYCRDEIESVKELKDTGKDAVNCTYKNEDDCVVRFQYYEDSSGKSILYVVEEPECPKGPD
human αVβ1, sequence (P06756 31-992 limits assumed): as the sequence (P06756 31-992 limits assumed) above
human αVβ1, sequence (P05556 21-728 limits assumed): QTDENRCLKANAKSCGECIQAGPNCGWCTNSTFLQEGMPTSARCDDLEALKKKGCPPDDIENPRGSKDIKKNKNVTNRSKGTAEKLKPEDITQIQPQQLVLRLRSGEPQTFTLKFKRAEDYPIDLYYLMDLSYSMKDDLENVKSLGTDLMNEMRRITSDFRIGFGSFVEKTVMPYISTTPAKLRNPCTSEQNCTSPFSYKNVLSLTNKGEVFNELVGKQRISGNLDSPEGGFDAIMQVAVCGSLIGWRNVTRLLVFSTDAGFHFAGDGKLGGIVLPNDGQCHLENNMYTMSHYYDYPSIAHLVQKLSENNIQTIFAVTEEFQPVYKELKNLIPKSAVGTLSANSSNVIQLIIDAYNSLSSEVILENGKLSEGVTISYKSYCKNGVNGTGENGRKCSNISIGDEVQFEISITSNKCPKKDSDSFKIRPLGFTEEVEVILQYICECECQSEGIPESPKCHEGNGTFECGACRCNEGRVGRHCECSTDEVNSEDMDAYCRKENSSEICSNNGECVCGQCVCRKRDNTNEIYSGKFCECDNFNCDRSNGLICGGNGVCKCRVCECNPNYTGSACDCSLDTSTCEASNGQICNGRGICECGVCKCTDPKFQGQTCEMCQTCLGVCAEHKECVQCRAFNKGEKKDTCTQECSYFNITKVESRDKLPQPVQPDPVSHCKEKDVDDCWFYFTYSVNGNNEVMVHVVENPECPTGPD
T1 sequence (P06756 31-992 limits assumed): as the sequence (P06756 31-992 limits assumed) above
T1 sequence (P18564 22-707 limits assumed): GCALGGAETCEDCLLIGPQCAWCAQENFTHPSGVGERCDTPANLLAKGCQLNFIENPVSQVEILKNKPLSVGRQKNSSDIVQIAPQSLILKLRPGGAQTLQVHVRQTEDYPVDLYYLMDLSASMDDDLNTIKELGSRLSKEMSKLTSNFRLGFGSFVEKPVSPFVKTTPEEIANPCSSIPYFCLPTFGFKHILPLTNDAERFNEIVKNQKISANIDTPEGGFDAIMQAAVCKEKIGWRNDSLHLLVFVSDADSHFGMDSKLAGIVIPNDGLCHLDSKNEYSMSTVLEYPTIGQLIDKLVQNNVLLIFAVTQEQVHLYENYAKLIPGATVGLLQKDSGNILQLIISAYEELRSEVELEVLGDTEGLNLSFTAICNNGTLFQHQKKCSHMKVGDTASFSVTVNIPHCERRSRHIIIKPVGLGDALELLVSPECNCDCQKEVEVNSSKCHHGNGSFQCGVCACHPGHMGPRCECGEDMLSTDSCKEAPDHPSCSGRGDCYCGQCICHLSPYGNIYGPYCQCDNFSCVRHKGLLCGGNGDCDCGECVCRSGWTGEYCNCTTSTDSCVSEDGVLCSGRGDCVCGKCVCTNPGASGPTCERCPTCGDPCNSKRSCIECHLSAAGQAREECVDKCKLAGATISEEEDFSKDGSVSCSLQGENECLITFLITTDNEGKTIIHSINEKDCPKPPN
human αVβ8, sequence (P06756 31-992 limits assumed): as the sequence (P06756 31-992 limits assumed) above
human αVβ8, sequence (P26012 43-684 limits assumed): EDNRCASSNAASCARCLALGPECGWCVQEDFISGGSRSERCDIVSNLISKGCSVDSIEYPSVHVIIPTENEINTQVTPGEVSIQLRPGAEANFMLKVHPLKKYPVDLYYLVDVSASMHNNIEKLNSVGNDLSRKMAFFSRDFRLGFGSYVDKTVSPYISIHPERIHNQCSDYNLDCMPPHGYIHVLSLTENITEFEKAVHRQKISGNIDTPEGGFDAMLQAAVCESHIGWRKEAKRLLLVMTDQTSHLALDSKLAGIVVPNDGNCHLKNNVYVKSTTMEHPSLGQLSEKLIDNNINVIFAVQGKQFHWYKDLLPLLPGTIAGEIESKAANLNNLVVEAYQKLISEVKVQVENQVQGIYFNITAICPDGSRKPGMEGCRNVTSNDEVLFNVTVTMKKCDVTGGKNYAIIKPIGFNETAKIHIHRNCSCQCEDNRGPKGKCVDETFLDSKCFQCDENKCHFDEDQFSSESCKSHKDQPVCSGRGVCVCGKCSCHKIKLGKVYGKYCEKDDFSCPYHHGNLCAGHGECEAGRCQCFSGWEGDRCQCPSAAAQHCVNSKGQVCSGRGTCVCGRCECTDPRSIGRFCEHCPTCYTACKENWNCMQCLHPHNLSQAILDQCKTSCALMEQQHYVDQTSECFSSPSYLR
human αVβ5, sequence (P06756 31-992 limits assumed): as the sequence (P06756 31-992 limits assumed) above
human αVβ5, sequence (P18084 24-719 limits assumed): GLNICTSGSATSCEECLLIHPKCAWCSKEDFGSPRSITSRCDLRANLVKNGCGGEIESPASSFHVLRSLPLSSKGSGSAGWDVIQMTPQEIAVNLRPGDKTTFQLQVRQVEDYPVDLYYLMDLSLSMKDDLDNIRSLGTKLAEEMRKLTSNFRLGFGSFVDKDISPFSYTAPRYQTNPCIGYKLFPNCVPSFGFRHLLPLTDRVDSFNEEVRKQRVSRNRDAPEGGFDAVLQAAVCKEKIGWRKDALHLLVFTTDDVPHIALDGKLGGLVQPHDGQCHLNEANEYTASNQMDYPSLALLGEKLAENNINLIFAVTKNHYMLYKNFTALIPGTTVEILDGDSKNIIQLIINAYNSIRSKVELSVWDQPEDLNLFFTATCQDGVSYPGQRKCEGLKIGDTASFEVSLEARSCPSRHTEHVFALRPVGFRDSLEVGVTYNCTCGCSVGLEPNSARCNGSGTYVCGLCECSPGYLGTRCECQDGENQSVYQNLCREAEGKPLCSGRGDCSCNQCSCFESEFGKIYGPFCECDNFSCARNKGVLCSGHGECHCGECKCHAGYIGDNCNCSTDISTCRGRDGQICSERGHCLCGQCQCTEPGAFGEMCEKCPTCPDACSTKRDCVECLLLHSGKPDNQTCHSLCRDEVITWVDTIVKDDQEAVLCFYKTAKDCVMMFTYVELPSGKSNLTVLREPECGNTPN

Row | SMILES | IC50 [1] [nM] | IC50 [2] [nM] | IC50 [3] [nM] | IC50 [4] [nM] | IC50 [5] [nM]
1 | O=C(O)C[C@@H](c1cnc2ccccc2c1)N1CC(CCCCc2ccc3c(n2)NCCC3)C1=O (stereo partly shown) [Example 106] | 5.46 | 270 | 220 | 2.5 | 2
2 | O=C(O)C[C@@H](c1ccc2c(c1)CCO2)N1CC(CCCCc2ccc3c(n2)NCCC3)C1=O (stereo partly shown) [Example 110] | 34 | 48 | 210 | 7.1 | 1.4
